The values that follow come from ChEMBL document CHEMBL5321282, “Design, Synthesis, and Biological Evaluation of Esculetin-Furoxan-DEAC Ternary Hybrids for Anti-Triple Negative Breast Cancer” (J Med Chem, 2023).

Data set [1] has as its system MDA-MB-231. The data set can be described thus: Induction of apoptosis in human MDA-MB-231 cells assessed as increase in activation of caspase level incubated for 8 hrs by Western blotting analysis. Type of data set: functional, cell-based. The settings on record: dose 5-20 nM. Background: In western blotting, separated proteins are transferred to a membrane and probed.

Another data set concerns A549. The data set is described as follows: Antiproliferative activity against human A549 cells assessed as inhibition of cell growth measured after 48 hrs by MTT assay. The settings on record: A549, 48 h. Format: functional, cell-based. For orientation: Tetrazolium assays rely on reduction of a dye to a coloured formazan, in cell work by metabolically active cells.
For another data set, the system named is MCF7. The data set can be described thus: Antiproliferative activity against human MCF7 cells assessed as inhibition of cell growth measured after 48 hrs by MTT assay. Type of data set: functional, cell-based. The settings on record: MCF7, 48 h.
Data set [2] is described as follows: Selectivity index, ratio of IC50 for cytotoxicity against human L02 cells to IC50 for antiproliferative activity against human MDA-MB-231 cells. The settings on record: L02 cells versus MDA-MB-231 cells, read-out: Ratio IC50. Type of data set: toxicity, cell-based.
Data set [3] relates to MDA-MB-231. The data set is described as follows: Antiproliferative activity against human MDA-MB-231 cells assessed as effect on NO level at 25 uM incubated for 2 hrs. Type of data set: functional, cell-based.
The test system of data set [4] is MDA-MB-231. The data set is described as follows: Antiproliferative activity against human MDA-MB-231 cells assessed as effect on NO level at 20 nM measured after 24 hrs in presence of PTIO by MTT assay. Type of data set: functional, cell-based.
Data set [5] concerns MDA-MB-231. The data set can be described thus: Induction of ROS production in human MDA-MB-231 cells measured after 24 hrs by DCFH-DA staining based fluorescence microscopic analysis. Format: functional, cell-based. The settings on record: dose 5-20 nM.
In data set [6] the test system is MDA-MB-231. The data set can be described thus: Antiproliferative activity against human MDA-MB-231 cells assessed as induction of ROS production at 20 nM in presence of NAC measured after 24 hrs by MTT assay. Type of data set: functional, cell-based.
For data set [7], the system named is MDA-MB-231. The data set can be described thus: Induction of apoptosis in human MDA-MB-231 cells assessed as viable cells at 20 nM incubated for 24 hrs by Annexin V-FITC/PI staining based flow cytometric analysis (reference value: 90.1%). Type of data set: functional. The settings on record: read-out: Activity. Background: Flow cytometry measures light scatter and fluorescence of single cells or particles in a stream.

For data set [8], the system named is MDA-MB-231. The data set is described as follows: Induction of apoptosis in human MDA-MB-231 cells assessed as early apoptotic cells at 5 nM incubated for 24 hrs by Annexin V-FITC/PI staining based flow cytometric analysis (reference value: 4.90%). Format: functional.
Data set [9] concerns MDA-MB-231. The data set is described as follows: Induction of apoptosis in human MDA-MB-231 cells assessed as early apoptotic cells at 20 nM incubated for 24 hrs by Annexin V-FITC/PI staining based flow cytometric analysis (reference value: 4.90%). Type of data set: functional.
Data set [10] deals with MDA-MB-231. The data set is described as follows: Induction of apoptosis in human MDA-MB-231 cells assessed as late apoptotic cells at 5 nM incubated for 24 hrs by Annexin V-FITC/PI staining based flow cytometric analysis (reference value: 4.90%). Type of data set: functional.
Data set [11] has as its system MDA-MB-231. The data set is described as follows: Induction of apoptosis in human MDA-MB-231 cells assessed as late apoptotic cells at 10 nM incubated for 24 hrs by Annexin V-FITC/PI staining based flow cytometric analysis (reference value: 4.90%). Format: functional.
The test system of data set [12] is MDA-MB-231. The data set is described as follows: Induction of cell cycle arrest in human MDA-MB-231 cells assessed as accumulation of cells at G1 phase at 5 nM measured after 24 hrs by PI staining based flow cytometric analysis (Rvb =58%). Type of data set: functional.
Data set [13] concerns MDA-MB-231. The data set is described as follows: Induction of cell cycle arrest in human MDA-MB-231 cells assessed as accumulation of cells at G1 phase at 10 nM measured after 24 hrs by PI staining based flow cytometric analysis (Rvb =58%). Type of data set: functional.
The subject of data set [14] is MDA-MB-231. The data set is described as follows: Induction of cell cycle arrest in human MDA-MB-231 cells assessed as accumulation of cells at G1 phase at 20 nM measured after 24 hrs by PI staining based flow cytometric analysis (Rvb =58%). Format: functional.
Data set [15] deals with MDA-MB-231. The data set can be described thus: Induction of cell cycle arrest in human MDA-MB-231 cells assessed as accumulation of cells at S phase at 5 nM measured after 24 hrs by PI staining by flow cytometric analysis (Rvb =24.1%). Format: functional.
The subject of data set [16] is MDA-MB-231. The data set is described as follows: Induction of cell cycle arrest in human MDA-MB-231 cells assessed as accumulation of cells at G2 phase at 20 nM measured after 24 hrs by PI staining by flow cytometric analysis (Rvb =18.1%). Format: functional.
Data set [17] concerns MDA-MB-231. The data set can be described thus: Induction of apoptosis in human MDA-MB-231 cells assessed as increase in Bcl2 level incubated for 8 hrs by Western blotting analysis. Format: functional, cell-based. The conditions noted are these: dose 5-20 nM.
Data set [18] deals with MDA-MB-231. The data set can be described thus: Induction of apoptosis in human MDA-MB-231 cells assessed as decrease in mitochondrial SMAC level at 5 to 20 nM incubated for 8 hrs by Western blotting analysis. Type of data set: functional, cell-based. The settings on record: dose 5-20 nM.
Data set [19] has as its system MDA-MB-231. The data set is described as follows: Induction of apoptosis in human MDA-MB-231 cells assessed as increase in cytoplasmic CytC level at 5 to 20 nM incubated for 8 hrs by Western blotting analysis. Type of data set: functional, cell-based. The settings on record: dose 5-20 nM.
Data set [20] relates to MDA-MB-231. The data set is described as follows: Induction of apoptosis in human MDA-MB-231 cells assessed as increase in cytoplasmic SMAC level at 5 to 20 nM incubated for 8 hrs by Western blotting analysis. The conditions noted are these: dose 5-20 nM. Format: functional, cell-based.
Data set [21] has as its system MDA-MB-231. The data set can be described thus: Antitumor activity against human MDA-MB-231 cells xenografted in BALB/C mouse assessed as inhibition of tumor volume at 5 mg/kg, ip administered every 2 days measured after 3 weeks. Type of data set: functional. More on the design: scale not given: the % may be the effect or the level left.
Data set [22] in a line: Toxicity in BALB/C mouse xenografted with human MDA-MB-231 cells assessed as liver damage at 2.5 to 5 mg/kg, ip administered every 2 days measured after 3 weeks by H and E staining based analysis. Format: organism-based. The settings on record: in vivo, 504 h, dose 2.5-5 mg/kg.

Activity calls are given as the source filed them. The rule behind the calls is not given here.

`CCN(CC)c1ccc2cc(C(=O)OCCCCCOc3cc4ccc(=O)oc4cc3OCCCCCCOc3no[n+]([O-])c3S(=O)(=O)c3ccccc3)c(=O)oc2c1`: the Activity entry with MDA-MB-231 [1] is “Dose-Dependent Effect”; with MDA-MB-231 [5] it was “Dose-Dependent Effect”; in the data set on MDA-MB-231 [8], 12.2%; with MDA-MB-231 [9], 31.9%; with MDA-MB-231 [10], 20.4%; in the data set with MDA-MB-231 [11] it was 30%. The Activity is 55.3% with MDA-MB-231 [12]; 56% with MDA-MB-231 [13]; 57.9% with MDA-MB-231 [14]; 29.3% with MDA-MB-231 [15]; 21.4% with MDA-MB-231 [16]; “Dose-Dependent Effect” in the data set on MDA-MB-231 [17]. Further, the Activity with MDA-MB-231 [21] is given as 63.5%; in data set [22] it was “Non-Toxic”. For the same compound, the IC50 (in general, the concentration that inhibits the measured activity by half) worked out at 0.84 µM in the data set on A549 and 2.14 µM with MCF7. Besides, the selectivity ratio in data set [2] amounted to 1490. The outcome in the data set on MDA-MB-231 [3], in the data set on MDA-MB-231 [18], in the data set on MDA-MB-231 [19] and with MDA-MB-231 [20] was Active. Further, the outcome in the data set with MDA-MB-231 [4] and in the data set with MDA-MB-231 [6] was inactive. Also, the viability at 0.02 µM in the data set with MDA-MB-231 [7] amounted to 25.2%.
